How the values were obtained:
Experiment in all cases: KINOMEscan binding assay
[1] = target: T1, ABL1(F317I)-nonphosphorylated (Homo sapiens, UniProt P00519, F317I); details: read-out: % Retention on Solid Support
T1 construct: purchased DiscoveRx KINOMEscan
Outline: (§1)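 Over 400 kinases were screened. i-CDK9 was applied at 1 and 10 µM. Occupancy was read by competition with an active site-directed ligand.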

ACVR1 = target: T2, ACVR1 (Homo sapiens, UniProt Q04771); details: read-out: % Retention on Solid Support
T2 construct: purchased DiscoveRx KINOMEscan
Outline: as §1

CAMK2A = target: T3, CAMK2A (Homo sapiens, UniProt Q9UQM7); details: read-out: % Retention on Solid Support
T3 construct: purchased DiscoveRx KINOMEscan
Outline: as §1

CDC2L5 = target: T4, CDC2L5 (Homo sapiens, UniProt Q14004); details: 1 µM i-CDK9
T4 construct: purchased DiscoveRx KINOMEscan
Outline: as §1

CHEK2 = target: T5, CHEK2 (Homo sapiens, UniProt O96017); details: read-out: % Retention on Solid Support
T5 construct: purchased DiscoveRx KINOMEscan
Outline: as §1

CLK3 = target: T6, CLK3 (Homo sapiens, UniProt P49761); details: read-out: % Retention on Solid Support
T6 construct: purchased DiscoveRx KINOMEscan
Outline: as §1

DCAMKL3 = target: T7, DCAMKL3 (Homo sapiens, UniProt Q9C098); details: read-out: % Retention on Solid Support
T7 construct: purchased DiscoveRx KINOMEscan
Outline: as §1

EGFR(E746-A750del) = target: T8, EGFR(E746-A750del) (Homo sapiens, UniProt P00533, DEL746-750)
T8 construct: purchased DiscoveRx KINOMEscan
Outline: as §1

EGFR(G719S) = target: T9, EGFR(G719S) (Homo sapiens, UniProt P00533, G719S)
T9 construct: purchased DiscoveRx KINOMEscan
Outline: as §1

EGFR(L861Q) = target: T10, EGFR(L861Q) (Homo sapiens, UniProt P00533, L861Q)
T10 construct: purchased DiscoveRx KINOMEscan
Outline: as §1

EPHA1 = target: T11, EPHA1 (Homo sapiens, UniProt P21709); details: read-out: % Retention on Solid Support
T11 construct: purchased DiscoveRx KINOMEscan
Outline: as §1

EPHA4 = target: T12, EPHA4 (Homo sapiens, UniProt P54764); details: read-out: % Retention on Solid Support
T12 construct: purchased DiscoveRx KINOMEscan
Outline: as §1

FES = target: T13, FES (Homo sapiens, UniProt P07332); details: read-out: % Retention on Solid Support
T13 construct: purchased DiscoveRx KINOMEscan
Outline: as §1

LYN = target: T14, LYN (Homo sapiens, UniProt P07948); details: read-out: % Retention on Solid Support
T14 construct: purchased DiscoveRx KINOMEscan
Outline: as §1

MAP4K5 = target: T15, MAP4K5 (Homo sapiens, UniProt Q9Y4K4); details: read-out: % Retention on Solid Support
T15 construct: purchased DiscoveRx KINOMEscan
Outline: as §1

MAST1 = target: T16, MAST1 (Homo sapiens, UniProt Q9Y2H9); details: read-out: % Retention on Solid Support
T16 construct: purchased DiscoveRx KINOMEscan
Outline: as §1

MET = target: T17, MET (Homo sapiens, UniProt P08581)
T17 construct: purchased DiscoveRx KINOMEscan
Outline: as §1

MST1R = target: T18, MST1R (Homo sapiens, UniProt Q04912); details: read-out: % Retention on Solid Support
T18 construct: purchased DiscoveRx KINOMEscan
Outline: as §1

PIK3CA(I800L) = target: T19, PIK3CA(I800L) (Homo sapiens, UniProt P42336, I800L); details: 1 µM i-CDK9; read-out: % Retention on Solid Support
T19 construct: purchased DiscoveRx KINOMEscan
Outline: as §1

PKN1 = target: T20, PKN1 (Homo sapiens, UniProt Q16512); details: read-out: % Retention on Solid Support
T20 construct: purchased DiscoveRx KINOMEscan
Outline: as §1

PKN2 = target: T21, PKN2 (Homo sapiens, UniProt Q16513); details: read-out: % Retention on Solid Support
T21 construct: purchased DiscoveRx KINOMEscan
Outline: as §1

PLK1 = target: T22, PLK1 (Homo sapiens, UniProt P53350); details: read-out: % Retention on Solid Support
T22 construct: purchased DiscoveRx KINOMEscan
Outline: as §1

PRKCE = target: T23, PRKCE (Homo sapiens, UniProt Q02156); details: read-out: % Retention on Solid Support
T23 construct: purchased DiscoveRx KINOMEscan
Outline: as §1

PRKCI = target: T24, PRKCI (Homo sapiens, UniProt P41743); details: 1 µM i-CDK9; read-out: % Retention on Solid Support
T24 construct: purchased DiscoveRx KINOMEscan
Outline: as §1

RIPK2 = target: T25, RIPK2 (Homo sapiens, UniProt O43353); details: read-out: % Retention on Solid Support
T25 construct: purchased DiscoveRx KINOMEscan
Outline: as §1

[2] = target: T26, RSK2(Kin.Dom.1-N-terminal) (Homo sapiens, UniProt P51812); details: read-out: % Retention on Solid Support
T26 construct: RSK2(Kin.Dom.1-N-terminal); purchased DiscoveRx KINOMEscan
Outline: as §1

TESK1 = target: T27, TESK1 (Homo sapiens, UniProt Q15569); details: read-out: % Retention on Solid Support
T27 construct: purchased DiscoveRx KINOMEscan
Outline: as §1

p38-alpha = target: T28, p38-alpha (Homo sapiens, UniProt Q16539)
T28 construct: purchased DiscoveRx KINOMEscan
Outline: as §1

p38-gamma = target: T29, p38-gamma (Homo sapiens, UniProt P53778); details: read-out: % Retention on Solid Support
T29 construct: purchased DiscoveRx KINOMEscan
Outline: as §1

T6 sequence (P49761 whole entry): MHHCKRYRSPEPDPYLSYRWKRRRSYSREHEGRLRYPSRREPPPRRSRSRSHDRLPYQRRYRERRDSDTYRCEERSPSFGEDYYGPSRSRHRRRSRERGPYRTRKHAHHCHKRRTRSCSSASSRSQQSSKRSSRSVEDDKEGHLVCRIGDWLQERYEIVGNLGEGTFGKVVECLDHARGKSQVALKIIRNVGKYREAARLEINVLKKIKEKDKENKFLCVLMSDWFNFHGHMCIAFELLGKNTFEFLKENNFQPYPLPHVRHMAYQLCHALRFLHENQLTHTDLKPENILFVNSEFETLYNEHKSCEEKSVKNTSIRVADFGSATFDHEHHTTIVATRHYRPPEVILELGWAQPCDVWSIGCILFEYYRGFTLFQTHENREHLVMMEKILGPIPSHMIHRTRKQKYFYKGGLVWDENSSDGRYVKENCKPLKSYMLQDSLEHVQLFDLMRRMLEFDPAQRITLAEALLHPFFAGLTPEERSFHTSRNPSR
T17 sequence (P08581 25-1390): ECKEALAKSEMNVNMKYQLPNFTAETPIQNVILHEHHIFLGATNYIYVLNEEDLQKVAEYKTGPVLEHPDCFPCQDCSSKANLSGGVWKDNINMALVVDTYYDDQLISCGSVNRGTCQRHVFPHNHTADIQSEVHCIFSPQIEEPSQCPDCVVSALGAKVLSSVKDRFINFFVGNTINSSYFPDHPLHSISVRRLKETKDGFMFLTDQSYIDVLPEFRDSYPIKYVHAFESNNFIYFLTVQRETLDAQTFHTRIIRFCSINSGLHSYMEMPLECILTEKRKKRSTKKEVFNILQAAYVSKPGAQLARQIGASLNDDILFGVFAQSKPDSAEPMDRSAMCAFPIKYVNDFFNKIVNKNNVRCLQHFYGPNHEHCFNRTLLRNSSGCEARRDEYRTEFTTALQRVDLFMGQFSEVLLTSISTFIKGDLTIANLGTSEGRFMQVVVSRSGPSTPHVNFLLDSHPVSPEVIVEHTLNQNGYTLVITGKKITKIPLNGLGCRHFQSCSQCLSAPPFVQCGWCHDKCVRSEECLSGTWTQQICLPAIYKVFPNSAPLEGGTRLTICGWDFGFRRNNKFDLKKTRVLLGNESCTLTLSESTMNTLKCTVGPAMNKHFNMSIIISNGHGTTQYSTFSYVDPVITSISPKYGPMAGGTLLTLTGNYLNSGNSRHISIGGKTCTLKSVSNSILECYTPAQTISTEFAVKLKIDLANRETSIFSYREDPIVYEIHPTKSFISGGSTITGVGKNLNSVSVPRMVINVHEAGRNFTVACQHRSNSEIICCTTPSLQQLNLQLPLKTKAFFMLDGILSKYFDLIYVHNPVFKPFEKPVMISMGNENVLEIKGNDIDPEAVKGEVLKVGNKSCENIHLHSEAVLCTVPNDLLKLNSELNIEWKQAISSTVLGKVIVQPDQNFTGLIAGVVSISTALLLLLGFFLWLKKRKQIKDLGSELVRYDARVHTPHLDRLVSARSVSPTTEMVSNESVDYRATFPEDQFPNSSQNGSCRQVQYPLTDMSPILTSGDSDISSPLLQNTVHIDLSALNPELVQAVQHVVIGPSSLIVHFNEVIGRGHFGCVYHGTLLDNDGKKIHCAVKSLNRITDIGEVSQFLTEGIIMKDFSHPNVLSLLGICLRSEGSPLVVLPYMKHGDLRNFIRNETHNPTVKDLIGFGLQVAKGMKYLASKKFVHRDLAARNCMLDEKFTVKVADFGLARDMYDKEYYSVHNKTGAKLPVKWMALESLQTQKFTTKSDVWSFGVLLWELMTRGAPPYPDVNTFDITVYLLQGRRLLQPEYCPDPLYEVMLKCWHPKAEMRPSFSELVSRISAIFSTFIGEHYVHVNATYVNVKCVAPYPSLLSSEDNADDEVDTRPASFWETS
T26 sequence (P51812 1-397 limits assumed): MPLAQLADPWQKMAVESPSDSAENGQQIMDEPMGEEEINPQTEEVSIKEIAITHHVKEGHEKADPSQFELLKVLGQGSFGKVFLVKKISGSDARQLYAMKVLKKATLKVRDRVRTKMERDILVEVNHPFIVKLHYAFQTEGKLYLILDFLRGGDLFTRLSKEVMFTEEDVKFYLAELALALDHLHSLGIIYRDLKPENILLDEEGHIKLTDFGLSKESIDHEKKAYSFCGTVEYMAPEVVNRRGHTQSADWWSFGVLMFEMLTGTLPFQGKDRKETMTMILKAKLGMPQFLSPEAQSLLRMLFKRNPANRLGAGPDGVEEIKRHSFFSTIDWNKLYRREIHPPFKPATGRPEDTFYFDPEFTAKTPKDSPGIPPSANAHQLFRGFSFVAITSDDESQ
T11 sequence (P21709 26-976): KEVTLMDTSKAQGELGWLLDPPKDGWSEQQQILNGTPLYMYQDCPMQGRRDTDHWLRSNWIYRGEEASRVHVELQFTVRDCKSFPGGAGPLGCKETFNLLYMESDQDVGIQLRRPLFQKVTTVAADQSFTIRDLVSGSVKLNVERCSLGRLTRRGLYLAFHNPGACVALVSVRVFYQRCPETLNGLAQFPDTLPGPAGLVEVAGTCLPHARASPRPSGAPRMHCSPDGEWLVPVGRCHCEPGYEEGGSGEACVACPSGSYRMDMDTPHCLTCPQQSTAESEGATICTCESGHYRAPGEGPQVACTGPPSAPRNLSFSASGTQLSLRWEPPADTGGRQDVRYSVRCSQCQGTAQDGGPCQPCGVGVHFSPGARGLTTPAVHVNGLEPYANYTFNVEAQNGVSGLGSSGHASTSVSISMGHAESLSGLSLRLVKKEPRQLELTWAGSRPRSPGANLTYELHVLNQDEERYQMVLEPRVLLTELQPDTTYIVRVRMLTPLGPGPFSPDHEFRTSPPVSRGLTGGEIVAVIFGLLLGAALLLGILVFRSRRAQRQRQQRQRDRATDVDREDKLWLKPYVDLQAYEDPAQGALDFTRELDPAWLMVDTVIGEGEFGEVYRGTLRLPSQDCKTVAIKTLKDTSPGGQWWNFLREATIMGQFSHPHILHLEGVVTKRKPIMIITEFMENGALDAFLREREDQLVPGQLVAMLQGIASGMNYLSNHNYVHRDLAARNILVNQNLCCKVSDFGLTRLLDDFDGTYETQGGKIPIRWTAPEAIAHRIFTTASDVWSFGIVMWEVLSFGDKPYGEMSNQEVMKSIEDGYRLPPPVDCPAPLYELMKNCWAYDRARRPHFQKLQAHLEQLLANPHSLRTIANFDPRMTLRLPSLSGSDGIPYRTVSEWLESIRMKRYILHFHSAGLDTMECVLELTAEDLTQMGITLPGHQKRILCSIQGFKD
T16 sequence (Q9Y2H9 whole entry): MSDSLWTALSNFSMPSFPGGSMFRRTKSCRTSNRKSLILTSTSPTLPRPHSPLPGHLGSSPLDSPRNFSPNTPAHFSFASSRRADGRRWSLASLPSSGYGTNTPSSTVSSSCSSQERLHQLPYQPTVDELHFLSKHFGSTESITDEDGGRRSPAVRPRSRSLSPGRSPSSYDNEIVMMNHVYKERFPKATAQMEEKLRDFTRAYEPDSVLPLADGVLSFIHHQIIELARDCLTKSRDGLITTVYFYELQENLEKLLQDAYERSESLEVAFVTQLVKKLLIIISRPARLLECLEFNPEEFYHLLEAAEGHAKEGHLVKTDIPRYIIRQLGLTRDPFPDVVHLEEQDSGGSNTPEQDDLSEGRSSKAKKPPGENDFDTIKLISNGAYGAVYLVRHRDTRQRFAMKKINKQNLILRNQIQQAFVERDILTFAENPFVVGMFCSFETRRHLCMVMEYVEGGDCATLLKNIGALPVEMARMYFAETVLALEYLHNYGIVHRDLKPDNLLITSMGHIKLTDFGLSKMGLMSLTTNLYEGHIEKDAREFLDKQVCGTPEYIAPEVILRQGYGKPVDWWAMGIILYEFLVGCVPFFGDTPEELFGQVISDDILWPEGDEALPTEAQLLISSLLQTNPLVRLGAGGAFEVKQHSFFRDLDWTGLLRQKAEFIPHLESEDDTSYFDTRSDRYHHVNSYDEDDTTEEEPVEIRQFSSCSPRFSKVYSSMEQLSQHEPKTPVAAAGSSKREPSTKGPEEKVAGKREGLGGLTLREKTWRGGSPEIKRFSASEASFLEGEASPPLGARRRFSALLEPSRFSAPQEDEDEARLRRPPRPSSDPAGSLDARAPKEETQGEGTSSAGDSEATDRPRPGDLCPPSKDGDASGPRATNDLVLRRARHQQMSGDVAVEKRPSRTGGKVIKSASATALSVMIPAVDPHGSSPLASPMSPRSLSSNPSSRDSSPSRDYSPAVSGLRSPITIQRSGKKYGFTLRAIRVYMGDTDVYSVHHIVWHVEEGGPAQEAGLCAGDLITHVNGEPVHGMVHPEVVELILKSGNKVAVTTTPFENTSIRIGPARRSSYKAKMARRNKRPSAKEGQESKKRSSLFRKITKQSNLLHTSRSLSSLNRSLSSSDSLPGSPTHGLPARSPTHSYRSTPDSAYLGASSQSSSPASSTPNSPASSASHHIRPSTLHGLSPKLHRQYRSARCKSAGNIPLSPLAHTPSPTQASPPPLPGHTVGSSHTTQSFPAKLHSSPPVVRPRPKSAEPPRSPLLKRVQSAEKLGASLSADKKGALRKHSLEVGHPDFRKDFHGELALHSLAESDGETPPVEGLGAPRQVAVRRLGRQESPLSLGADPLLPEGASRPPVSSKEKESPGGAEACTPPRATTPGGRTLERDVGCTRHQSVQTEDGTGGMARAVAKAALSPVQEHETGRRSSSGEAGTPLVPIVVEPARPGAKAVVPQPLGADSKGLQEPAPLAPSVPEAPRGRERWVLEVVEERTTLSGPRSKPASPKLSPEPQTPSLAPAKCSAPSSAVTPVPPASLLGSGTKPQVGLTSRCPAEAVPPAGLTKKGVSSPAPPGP

N[C@H]1CC[C@H](Nc2cc(-c3cccc(NCc4cccc(F)c4)n3)c(Cl)cn2)CC1 [i-CDK9, N2′-(trans-4-aminocyclohexyl)-5′-chloro-N6-(3-fluorobenzyl)-2,4′-bipyridine-2′,6-diamine]
remaining binding at 1 µM ([1]; 1 µM i-CDK9): 99%
remaining binding at 10 µM ([1]; 10 µM i-CDK9): 75%
remaining binding at 1 µM (ACVR1; 1 µM i-CDK9): 100%
remaining binding at 10 µM (ACVR1; 10 µM i-CDK9): 100%
remaining binding at 1 µM (CAMK2A; 1 µM i-CDK9): 91%
remaining binding at 10 µM (CAMK2A; 10 µM i-CDK9): 81%
% Retention on Solid Support (CDC2L5): 100%
remaining binding at 1 µM (CHEK2; 1 µM i-CDK9): 98%
remaining binding at 10 µM (CHEK2; 10 µM i-CDK9): 100%
remaining binding at 1 µM (CLK3; 1 µM i-CDK9): 88%
remaining binding at 10 µM (CLK3; 10 µM i-CDK9): 25%
remaining binding at 1 µM (DCAMKL3; 1 µM i-CDK9): 100%
remaining binding at 10 µM (DCAMKL3; 10 µM i-CDK9): 63%
% Retention on Solid Support (EGFR(E746-A750del); 1 µM i-CDK9): 0%
% Retention on Solid Support (EGFR(E746-A750del); 10 µM i-CDK9): 78%
% Retention on Solid Support (EGFR(G719S); 1 µM i-CDK9): 100%
% Retention on Solid Support (EGFR(G719S); 10 µM i-CDK9): 100%
% Retention on Solid Support (EGFR(L861Q); 1 µM i-CDK9): 78%
% Retention on Solid Support (EGFR(L861Q); 10 µM i-CDK9): 74%
remaining binding at 1 µM (EPHA1; 1 µM i-CDK9): 99%
remaining binding at 10 µM (EPHA1; 10 µM i-CDK9): 100%
remaining binding at 1 µM (EPHA4; 1 µM i-CDK9): 100%
remaining binding at 10 µM (EPHA4; 10 µM i-CDK9): 89%
remaining binding at 1 µM (FES; 1 µM i-CDK9): 97%
remaining binding at 10 µM (FES; 10 µM i-CDK9): 90%
remaining binding at 1 µM (LYN; 1 µM i-CDK9): 100%
remaining binding at 10 µM (LYN; 10 µM i-CDK9): 81%
remaining binding at 1 µM (MAP4K5; 1 µM i-CDK9): 94%
remaining binding at 10 µM (MAP4K5; 10 µM i-CDK9): 85%
remaining binding at 1 µM (MAST1; 1 µM i-CDK9): 100%
remaining binding at 10 µM (MAST1; 10 µM i-CDK9): 82%
% Retention on Solid Support (MET; 1 µM i-CDK9): 94%
% Retention on Solid Support (MET; 10 µM i-CDK9): 96%
remaining binding at 1 µM (MST1R; 1 µM i-CDK9): 100%
remaining binding at 10 µM (MST1R; 10 µM i-CDK9): 100%
remaining binding at 1 µM (PIK3CA(I800L)): 100%
remaining binding at 1 µM (PKN1; 1 µM i-CDK9): 73%
remaining binding at 10 µM (PKN1; 10 µM i-CDK9): 100%
remaining binding at 1 µM (PKN2; 1 µM i-CDK9): 52%
remaining binding at 10 µM (PKN2; 10 µM i-CDK9): 93%
remaining binding at 1 µM (PLK1; 1 µM i-CDK9): 100%
remaining binding at 10 µM (PLK1; 10 µM i-CDK9): 92%
remaining binding at 1 µM (PRKCE; 1 µM i-CDK9): 100%
remaining binding at 10 µM (PRKCE; 10 µM i-CDK9): 100%
remaining binding at 1 µM (PRKCI): 100%
remaining binding at 1 µM (RIPK2; 1 µM i-CDK9): 65%
remaining binding at 10 µM (RIPK2; 10 µM i-CDK9): 77%
remaining binding at 1 µM ([2]; 1 µM i-CDK9): 86%
remaining binding at 10 µM ([2]; 10 µM i-CDK9): 76%
remaining binding at 1 µM (TESK1; 1 µM i-CDK9): 100%
remaining binding at 10 µM (TESK1; 10 µM i-CDK9): 57%
% Retention on Solid Support (p38-alpha; 1 µM i-CDK9): 85%
% Retention on Solid Support (p38-alpha; 10 µM i-CDK9): 100%
remaining binding at 1 µM (p38-gamma; 1 µM i-CDK9): 100%
remaining binding at 10 µM (p38-gamma; 10 µM i-CDK9): 100%

Reference: publication PMC4490784, “Compensatory induction of MYC expression by sustained CDK9 inhibition via a BRD4-dependent mechanism” (eLife, 2015)
